Results published in patent US20230218710A1, “METHOD OF TREATING CORONAVIRUS INFECTIONS” (priority 2020, published 2023).
Marks after values point to notes of the source that are not given here.

What was measured:
Apelin Receptor (APJ) = molecular target: T1, Apelin Receptor (APJ) (Homo sapiens, UniProt P35414); experiment: Phosphorylation of ERK1/2 in cultured cells overexpressing APJ; format: cell-based; conditions: 5 min, 100 nM Pyr-Apelin-13 = positive control, acetate salts
T1 construct: host or cells: CHO-K1 AGTRL1 Gi cells
T1 sequence (P35414 1-380): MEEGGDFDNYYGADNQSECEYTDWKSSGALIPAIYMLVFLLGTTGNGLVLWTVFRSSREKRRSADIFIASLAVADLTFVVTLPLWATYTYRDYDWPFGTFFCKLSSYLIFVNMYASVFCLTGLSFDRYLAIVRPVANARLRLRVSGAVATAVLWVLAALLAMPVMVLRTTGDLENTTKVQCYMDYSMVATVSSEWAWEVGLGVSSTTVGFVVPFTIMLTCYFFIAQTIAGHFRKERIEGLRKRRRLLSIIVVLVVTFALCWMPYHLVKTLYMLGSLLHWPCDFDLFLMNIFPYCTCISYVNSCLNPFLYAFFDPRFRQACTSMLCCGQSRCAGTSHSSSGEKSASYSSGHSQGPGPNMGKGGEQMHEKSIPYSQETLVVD
Protocol: The effect of the peptides of the current invention on activation of Apelin Receptor (APJ)-mediated signaling can be assessed using an assay to monitor phospho-ERK/phospho-p44/42 MAPK (p-ERK1/2) levels in cultured cells overexpressing Apelin Receptor (APJ) such as CHO-K1, derived from Chinese hamster ovary. Peptides were initially prepared as 100× stocks in H2O. […] Following a 5 min incubation the supernatant was removed and the cells were placed on ice and washed twice with cold HBSS. The HBSS was removed and the cells were immediately lysed in 300 μl/well of 1× lysis buffer (CST 10× Lysis Buffer; Cell Signaling Technology; Danvers, Mass.); lysis buffer was supplemented with 1 mM PMSF (Millipore-Sigma; Saint Louis, Mo.) and Halt Protease/Phosphatase Inhibitor Cocktail (Thermo-Fisher; Waltham, Mass.) prior to use. The samples were then placed on ice for 10 min, wells were scraped and lysates transferred to microfuge tubes. The samples were centrifuged at 12,500 rpm for 10 min at 4° C. and p-ERK1/2 expression in each sample was measured using Phospho-p44/42 MAPK (Thr202/Tyr204) Sandwich ELISA kit according to manufacturer's instructions (Cell Signaling Technology; Danvers, Mass.). Absorbance was measured using a Cytation 3 plate reader at […] (BioTek; Winooski, Vt.). […] Each data point represents the average of duplicate assays.

[1] = tested on: LPS-induced acute lung injury mouse model; experiment: LPS-induced acute lung injury model in mouse (Example 8); format: in vivo, mice; conditions: HCl salts; for Pro-inflammatory Cytokine Level IFNγ / Pro-inflammatory Cytokine Level IL-1β / Pro-inflammatory Cytokine Level IL-2 / Pro-inflammatory Cytokine Level IL-4 / Pro-inflammatory Cytokine Level IL-5 / Pro-inflammatory Cytokine Level IL-6 / Pro-inflammatory Cytokine Level IL-9 / Pro-inflammatory Cytokine Level IL-10 / Pro-inflammatory Cytokine Level IL-12p70 / Pro-inflammatory Cytokine Level IL-17A / Pro-inflammatory Cytokine Level IL-17A/F / Pro-inflammatory Cytokine Level IL-17C / Pro-inflammatory Cytokine Level IL-17E/IL-25 / Pro-inflammatory Cytokine Level IL-23 / Pro-inflammatory Cytokine Level IL-27p28/IL-30 / Pro-inflammatory Cytokine Level IL-31 / Pro-inflammatory Cytokine Level IP-10 / Pro-inflammatory Cytokine Level KC/GRO / Pro-inflammatory Cytokine Level MCP-1 / Pro-inflammatory Cytokine Level MIP-1α / Pro-inflammatory Cytokine Level MIP-2 / Pro-inflammatory Cytokine Level MIP-3α / Pro-inflammatory Cytokine Level TNFα: BALF; for Mean (SEM) Alveolar Neutrophil Infiltration Score / Mean (SEM) Interstitial Neutrophil Infiltration Score / Mean (SEM) Composite Lung Injury Score: histopathology; for Mean (SEM) Alveolar Neutrophil Infiltration Score / Mean (SEM) Interstitial Neutrophil Infiltration Score: 0-5 scale
Protocol: The effect of the peptides of the current invention on acute lung injury can be assessed in an LPS-induced acute lung injury mouse model by monitoring outcomes such as lung weight, fluid accumulation, cytokine secretion in blood or bronchoalveolar lavage fluid (BALF), neutrophil infiltration into lung tissues, and assessment of acute lung injury score by histopathology. Acute lung injury was induced in male C57BL/6 mice (6 to 8 weeks old) by intratracheal administration of 40 μL lipopolysaccharide (LPS) (Sigma Aldrich, St. Louis, Mo.) in PBS at 5 mg/kg. Control animals received intratracheal PBS alone. Animals (n=8 per treatment group) induced with LPS received intraperitoneal treatment with: PBS (vehicle control) or test peptides at 5 or 15 mg/kg in water. Treatments were administered 1 h prior to LPS for animals designated for termination at 4 h after LPS, or at both 1 h prior to and 6 h after LPS for animals designated for termination at 24 h after LPS. At 4 or 24 hours post-LPS administration, tissues were harvested. Lungs were weighed and flushed with Hanks Buffer to provide bronchoalveolar lavage fluid (BALF). Lungs collected at 24 h were fixed in 10% neutral buffered formalin (NBF) for histopathology. Tissue slides were stained with hematoxylin and eosin (H&E) and evaluated and scored with light microscopy of 5 representative microscopic fields (100× magnification) scoring on a 0-5 scale using standard methods (Matute-Bello G et al 2011. An Official American Thoracic Society Workshop Report: Features and Measurements of Experimental Acute Lung Injury in Animals. Am J Respir Cell Mol Biol 44:725-38). The average score for five fields was calculated for each animal. Levels of pro-inflammatory cytokines in BALF at 4 h were determined using a meso scale discovery (MSD) system. Data for test peptides were compared to the vehicle control group. Table 13 compares the lung weights following LPS induction and treatment with PBS (vehicle control), or peptides. Table 14 compares the levels of pro-inflammatory cytokines in BALF following LPS induction and treatment with PBS (vehicle control) or peptides. Table 15 compares the histopathology scores for infiltration of neutrophils into alveoli and interstitial lung tissue and the composite lung injury score following LPS induction and treatment with PBS (vehicle control) or peptides.

## (PEG12)KRRLLGLVFQSLCG(dA) (KRRLLGLVFQSLCGA; N-terminal PEG12; C-terminal D-alanine; (1)..(1) PEG12; (15)..(15) D-Ala) [SEQ ID NO: 37]
Apelin Receptor (APJ); 0.4 μM peptide
  pERK1/2 (% of Positive Control): 9.9%
Apelin Receptor (APJ); 2.0 μM peptide
  pERK1/2 (% of Positive Control): 27.3%
Apelin Receptor (APJ); 10 μM peptide
  pERK1/2 (% of Positive Control): 54.2%
Apelin Receptor (APJ); 50 μM peptide
  pERK1/2 (% of Positive Control): 88.4%
[1]; 4 h after LPS, 5 mg/kg i.p.
  Mean (SEM) Lung Weight: 0.279 (0.006) g
  Pro-inflammatory Cytokine Level IFNγ: 0.37 (0.07) pg/mL
  Pro-inflammatory Cytokine Level IL-1β: 68.3 (12.6) pg/mL
  Pro-inflammatory Cytokine Level IL-2: 2.83 (0.45) pg/mL
  Pro-inflammatory Cytokine Level IL-4: 1.63 (0.37) pg/mL
  Pro-inflammatory Cytokine Level IL-5: 8.14 (1.35) pg/mL
  Pro-inflammatory Cytokine Level IL-6: 9380 (1380) pg/mL
  Pro-inflammatory Cytokine Level IL-9: 7.84 (0.67) pg/mL
  Pro-inflammatory Cytokine Level IL-10: 32.2 (5.31) pg/mL
  Pro-inflammatory Cytokine Level IL-12p70: 65.2 (15.9) pg/mL
  Pro-inflammatory Cytokine Level IL-17A: 2.22 (0.741) pg/mL
  Pro-inflammatory Cytokine Level IL-17A/F: 7.45 (2.46) pg/mL
  Pro-inflammatory Cytokine Level IL-17C: 0.66 (0.04) pg/mL
  Pro-inflammatory Cytokine Level IL-17E/IL-25: 0.18 (0.10) pg/mL
  Pro-inflammatory Cytokine Level IL-23: 0.08 (0.07) pg/mL
  Pro-inflammatory Cytokine Level IL-27p28/IL-30: 13.7 (2.44) pg/mL
  Pro-inflammatory Cytokine Level IL-31: 0.00 (0.00) pg/mL
  Pro-inflammatory Cytokine Level IP-10: 2290 (341) pg/mL
  Pro-inflammatory Cytokine Level KC/GRO: 3120 (196) pg/mL
  Pro-inflammatory Cytokine Level MCP-1: 1310 (225) pg/mL
  Pro-inflammatory Cytokine Level MIP-1α: 5660 (50.6) pg/mL
  Pro-inflammatory Cytokine Level MIP-2: 3230 (25.1) pg/mL
  Pro-inflammatory Cytokine Level MIP-3α: 983 (75.1) pg/mL
  Pro-inflammatory Cytokine Level TNFα: 4070 (518) pg/mL
[1]; 4 h after LPS, 15 mg/kg i.p.
  Mean (SEM) Lung Weight: 0.280 (0.005) g
  Pro-inflammatory Cytokine Level IFNγ: 0.42 (0.10) pg/mL
  Pro-inflammatory Cytokine Level IL-1β: 91.5 (20.0) pg/mL
  Pro-inflammatory Cytokine Level IL-2: 3.36 (0.55) pg/mL
  Pro-inflammatory Cytokine Level IL-4: 1.75 (0.28) pg/mL
  Pro-inflammatory Cytokine Level IL-5: 13.2 (2.05) pg/mL
  Pro-inflammatory Cytokine Level IL-6: 11600 (1360) pg/mL
  Pro-inflammatory Cytokine Level IL-9: 7.89 (1.31) pg/mL
  Pro-inflammatory Cytokine Level IL-10: 31.5 (3.76) pg/mL
  Pro-inflammatory Cytokine Level IL-12p70: 80.0 (21.8) pg/mL
  Pro-inflammatory Cytokine Level IL-17A: 2.82 (0.639) pg/mL
  Pro-inflammatory Cytokine Level IL-17A/F: 4.48 (0.59) pg/mL
  Pro-inflammatory Cytokine Level IL-17C: 0.69 (0.13) pg/mL
  Pro-inflammatory Cytokine Level IL-17E/IL-25: 0.44 (0.29) pg/mL
  Pro-inflammatory Cytokine Level IL-23: 0.06 (0.05) pg/mL
  Pro-inflammatory Cytokine Level IL-27p28/IL-30: 15.5 (2.42) pg/mL
  Pro-inflammatory Cytokine Level IL-31: 0.00 (0.00) pg/mL
  Pro-inflammatory Cytokine Level IP-10: 3020 (547) pg/mL
  Pro-inflammatory Cytokine Level KC/GRO: 3260 (142) pg/mL
  Pro-inflammatory Cytokine Level MCP-1: 1590 (178) pg/mL
  Pro-inflammatory Cytokine Level MIP-1α: 5490 (35.1) pg/mL
  Pro-inflammatory Cytokine Level MIP-2: 3160 (34.2) pg/mL
  Pro-inflammatory Cytokine Level MIP-3α: 825 (46.9) pg/mL
  Pro-inflammatory Cytokine Level TNFα: 3910 (349) pg/mL
[1]; 24 h after LPS, 5 mg/kg i.p.
  Mean (SEM) Lung Weight: 0.286 (0.008)* g
  Mean (SEM) Alveolar Neutrophil Infiltration Score: 1.50 (0.09)
  Mean (SEM) Interstitial Neutrophil Infiltration Score: 1.55 (0.14)
  Mean (SEM) Composite Lung Injury Score: 3.08 (0.17)
[1]; 24 h after LPS, 15 mg/kg i.p.
  Mean (SEM) Lung Weight: 0.284 (0.007)* g
  Mean (SEM) Alveolar Neutrophil Infiltration Score: 1.60 (0.13)
  Mean (SEM) Interstitial Neutrophil Infiltration Score: 1.23 (0.11)
  Mean (SEM) Composite Lung Injury Score: 2.93 (0.22)
